The nature of this series: Apoptosis/necrosis assay (Annexin V–propidium iodide, flow cytometry). Type of series: cell-based, human. Particulars: human, MCF-10A cells, 24 h at IC50-24, flow cytometry. As for the experimental part:
Apoptosis and necrosis were determined using the Apoptosis/Necrosis Detection kit (Abcam, Cambridge, UK) according to the manufacturer’s instructions. In brief, approximately 500,000 cells were seeded in 6-well plates (Corning) for 24 h. […] Cells were harvested and collected by centrifugation. All the samples were analyzed in triplicate using flow cytometry equipment FACSCalibur instrument (BD Biosciences, San Jose, CA, USA) at […] and 575-nm emission. Data analysis was performed using the FlowJo software (Tree Star Inc., Ashland, OR, USA). All experiments were performed in triplicate.

Compound `O=C(CN1CCN(c2cccc(Cl)c2)CC1)N[C@@H]1CCOc2ccccc21` [P8, 2-[4-(3-chlorophenyl)piperazin-1-yl]-N-[(4R)-chroman-4-yl]acetamide] had a viability at 24 h of 94.3%.

For orientation: viability means the share of living cells, or the viability signal relative to a control.
